In US20210062159A1, “CELL AGGREGATION PROMOTER” (KANEKA CORPORATION, priority 2017, published 2021):

Assays:
Format in all cases: cell-based
[1] = system: human iPS cells (TkDN4-M cell lines); test: Glucose consumption of suspension culture (biosensor BF-5iD); settings: Day 1 to Day 5 of culture, CCG-1423 added condition, FIG. 4
Procedure: A cell suspension was prepared in the same manner as in Example 2, and separately, the cell aggregation promoter was adjusted so that the final concentration of CCG-1423 (same as above) was 4.55 mg/mL (10 mM), then the adjusted cell aggregation promoter was added to the cell suspension so that the final concentration of CCG-1423 was 10 μM, and the cells were seeded at a ratio of 4 mL/well in a 6-well plate for suspension culture (Sumitomo Bakelite Co., Ltd.). The cell-seeded plate was subjected to a swirling culture on a rotary shaker (OPTIMA, Inc.) at a speed of 90 rpm along the horizontal plane to draw a circle with a swirling width (diameter) of 25 mm and cells were cultured in suspension under a condition at 5% CO2 and 37° C. […] While 208 cell aggregates in images obtained at Day 1 of culture being observed and compared using a micrograph scale, the width (referred to as “φ”) of the widest portion of each cell aggregate was measured, distribution thereof was examined, and average±standard deviation was calculated. The concentration of glucose contained in the culture supernatant collected at the time of culture medium exchange was measured with biosensor BF-5iD (Prince Measuring Equipment Co., Ltd.) to calculate glucose consumption.

[2] = system: human iPS cells (TkDN4-M cell lines); test: Cell aggregate formation and size (widest portion) in swirling suspension culture, phase contrast microscopy; settings: for Number of cell aggregates by size / Percentage of cell aggregates by size: CCG-1423 added
Procedure: A cell suspension was prepared in the same manner as in Example 2, and separately, the cell aggregation promoter was adjusted so that the final concentration of CCG-1423 (same as above) was 4.55 mg/mL (10 mM), then the adjusted cell aggregation promoter was added to the cell suspension so that the final concentration of CCG-1423 was 10 μM, and the cells were seeded at a ratio of 4 mL/well in a 6-well plate for suspension culture (Sumitomo Bakelite Co., Ltd.). The cell-seeded plate was subjected to a swirling culture on a rotary shaker (OPTIMA, Inc.) at a speed of 90 rpm along the horizontal plane to draw a circle with a swirling width (diameter) of 25 mm and cells were cultured in suspension under a condition at 5% CO2 and 37° C. After the next day of culture (Day 1 of culture), the culture medium was exchanged daily for a fresh culture medium (Essential 8™ culture medium containing BSA (Wako Pure Chemical Industries, Ltd.) at a final concentration of 5 mg/mL), and the culture continued until 5 days after the start of culture. A control test was conducted by culturing in the same way except for using CCG-1423 and Y-27632 free culture media. Images were obtained by phase contrast microscopy every day during culture. While 208 cell aggregates in images obtained at Day 1 of culture being observed and compared using a micrograph scale, the width (referred to as “φ”) of the widest portion of each cell aggregate was measured, distribution thereof was examined, and average±standard deviation was calculated. The concentration of glucose contained in the culture supernatant collected at the time of culture medium exchange was measured with biosensor BF-5iD (Prince Measuring Equipment Co., Ltd.) to calculate glucose consumption.

[3] = system: human iPS cells (TkDN4-M cell lines); test: Cell yield at Day 5 of suspension culture (trypan blue, hemocytometer); settings: Day 5 of culture, aggregates formed with 10 μM CCG-1423, FIG. 5
Procedure: A cell suspension was prepared in the same manner as in Example 2, and separately, the cell aggregation promoter was adjusted so that the final concentration of CCG-1423 (same as above) was 4.55 mg/mL (10 mM), then the adjusted cell aggregation promoter was added to the cell suspension so that the final concentration of CCG-1423 was 10 μM, and the cells were seeded at a ratio of 4 mL/well in a 6-well plate for suspension culture (Sumitomo Bakelite Co., Ltd.). […] While 208 cell aggregates in images obtained at Day 1 of culture being observed and compared using a micrograph scale, the width (referred to as “φ”) of the widest portion of each cell aggregate was measured, distribution thereof was examined, and average±standard deviation was calculated. The concentration of glucose contained in the culture supernatant collected at the time of culture medium exchange was measured with biosensor BF-5iD (Prince Measuring Equipment Co., Ltd.) to calculate glucose consumption.
In addition, at Day 5 of culture, cell aggregates were collected, dispersed with Accutase, and then suspended in Essential 8™ culture medium containing 5 mg/mL BSA. A portion of this cell suspension was stained with trypan blue and the number of cells was counted. […] The resulting cells were analyzed on FACSVerse. […]
Cell yields were also measured at Day 5 of culture. […]

[4] = system: human iPS cells (TkDN4-M cell lines); test: Number of dead cells, Cytotoxicity LDH Assay Kit-WST, Day 1 of suspension culture; settings: 10 μM CCG-1423, 2.5 μM Y-27632, Day 1 of culture, FIG. 2
Procedure: Human iPS cells that had been cultured using the protocol of Example 1 were treated with Accutase for 3 to 5 minutes and were detached and dispersed to single cells. The resulting cells were suspended in Essential 8™ culture medium containing a final concentration of 5 mg/mL of BSA (Wako Pure Chemical Industries, Ltd.) and a final concentration of 2.5 μM of Y-27632 (Wako Pure Chemical Industries, Ltd.), and a portion thereof was stained with trypan blue and the number of cells was counted. The cell suspension was prepared so as to contain 2×10^5 cells per ml. Separately, the cell aggregation promoter was adjusted so that the final concentration of CCG-1423 (Cayman, 10010350) was 4.55 mg/mL (10 mM), then the adjusted cell aggregation promoter was added to the cell suspension so that the final concentration of CCG-1423 was 10 μM. Then the cells were seeded at a ratio of 1.3 mL/well in a 12-well plate for suspension culture (Sumitomo Bakelite Co., Ltd.). […]
At the next day after the start of culture (Day 1 of culture), images were obtained by phase contrast microscopy, and the number of dead cells was calculated with Cytotoxicity LDH Assay Kit-WST (Peer Chemistry Research Institute, Inc.).

[5] = system: human iPS cells (TkDN4-M cell lines); test: Percentage of cells positive for undifferentiation markers (SOX2, OCT4, Nanog), flow cytometry; settings: Day 5 of culture, aggregates produced in medium comprising CCG-1423, FIG. 6
Procedure: In addition, at Day 5 of culture, cell aggregates were collected, dispersed with Accutase, and then suspended in Essential 8™ culture medium containing 5 mg/mL BSA. A portion of this cell suspension was stained with trypan blue and the number of cells was counted. After the above cell suspensions were centrifuged at 300 g for 3 minutes, the supernatant was then removed, and the cells were washed with PBS (phosphate buffered saline). Next, the cells were fixed with 4% paraformaldehyde (Wako Pure Chemical Industries, Ltd.) at room temperature for 20 minutes, then washed 3 times with PBS. After cells were resuspended with 300 μL of PBS, 3 mL of cold methanol was added while stirring with voltex, and permeabilized at −20° C. overnight or more. After 3 washes with 3% FBS (fetal bovine serum)/PBS, cells were resuspended with 3% FBS (fetal bovine serum)/PBS and blocked at room temperature for 30 minutes to 1 hour. Subsequently, the cells were stained with fluorescently labeled anti-SOX2 antibodies (Cat. No. 656110, BioLegend, Inc.) and fluorescently labeled anti-OCT4 antibodies (Cat. No. 653703, BioLegend, Inc.) and fluorescently labeled anti-Nanog antibodies (Cat. No. 674010, BioLegend, Inc.) at 4° C. for 30 minutes to 1 hour. After washed once with 3% FBS (fetal bovine serum)/PBS, the cells were made to pass through a cell strainer. The resulting cells were analyzed on FACSVerse. A control test was conducted using cells that were treated in the same way except for reacting, instead of the above three antibodies (fluorescently labeled anti-SOX2 antibody, fluorescently labeled anti-OCT4 antibody, fluorescently labeled anti-Nanog antibody), with three fluorescently labeled isotype control antibodies (Cat. No. 400129, Cat. No. 400314, Cat. No. 400136; BioLegend, Inc.) corresponding to each of the above three antibodies.

[6] = system: human iPS cells (TkDN4-M cell lines); test: Cell aggregation assay, suspension culture, phase contrast microscopy at Day 1; settings: 10 μM CCG-1423, 2.5 μM Y-27632, Day 1 of culture, 12-well plate, FIG. 1
Procedure: TkDN4-M cell lines (Institute of Medical Science, The University of Tokyo) were used as human iPS cells. Human iPS cells were seeded on cell culture dishes coated with Vitronectin (Thermo Fisher Scientific Co., Ltd.) and subjected to a maintenance culture using Essential 8™ (Thermo Fisher Scientific Co., Ltd.) as the culture medium. Accutase (Thermo Fisher Scientific Co., Ltd.) was used as a cell detachment agent during passage. In addition, when the cells were seeded, Y-27632 (Wako Pure Chemical Industries, Ltd.) at a concentration of 10 μM was added to a culture medium. The culture medium was changed every day. For experiments, human iPS cells (the number of passage was 50 or less) were used.
Human iPS cells that had been cultured using the protocol of Example 1 were treated with Accutase for 3 to 5 minutes and were detached and dispersed to single cells. The resulting cells were suspended in Essential 8™ culture medium containing a final concentration of 5 mg/mL of BSA (Wako Pure Chemical Industries, Ltd.) and a final concentration of 2.5 μM of Y-27632 (Wako Pure Chemical Industries, Ltd.), and a portion thereof was stained with trypan blue and the number of cells was counted. The cell suspension was prepared so as to contain 2×10^5 cells per ml. […]

[7] = Day 1 of culture, 10 μM CCG-1423
[8] = size range 40- μm, Day 1 of culture
[9] = size range 60- μm, Day 1 of culture
[10] = size range 80- μm, Day 1 of culture
[11] = size range 100- μm, Day 1 of culture
[12] = size range 120- μm, Day 1 of culture
[13] = size range 140- μm, Day 1 of culture
[14] = size range 160- μm, Day 1 of culture
[15] = size range 180- μm, Day 1 of culture
[16] = size range 200- μm, Day 1 of culture
[17] = size range 220- μm, Day 1 of culture
[18] = size range 240- μm, Day 1 of culture
[19] = size range 260- μm, Day 1 of culture
[20] = size range 280- μm, Day 1 of culture
[21] = size range 300- μm, Day 1 of culture

With CC(ONC(=O)c1cc(C(F)(F)F)cc(C(F)(F)F)c1)C(=O)Nc1ccc(Cl)cc1 (stereo not drawn) [CCG-1423, N-[2-[4(4-chlorophenyl)amino]-1-methyl-2-oxoethoxy]-3,5-bis(trifluoromethyl)-benzamide] the glucose consumption [1] was “increased daily”, the “cell aggregate formation after seeding to Day 1 of culture” value ([2]; 10 μM CCG-1423, 6-well plate, FIG. 3) was “cell aggregates were formed” and the “cell aggregates on continued culture to Day 5” value ([2]; 10 μM CCG-1423 until Day 1, then medium exchanged daily, Day 1 to Day 5, FIG. 3) was “cell aggregates were expanded”. For the same molecule, the “percentage of cell aggregates with size (diameter) 60 μm or more and 300 μm or less” value [2, 7] was 99.5%, the “percentage of cell aggregates with size (diameter) 80 μm or more and 300 μm or less” value [2, 7] was 98.5% and the “percentage of cell aggregates with size (diameter) 100 μm or more and 300 μm or less” value [2, 7] was 98.5%. The “average±standard deviation of cell aggregate size (diameter)” value ([2]; Day 1 of culture, 10 μM CCG-1423, 208 cell aggregates) was 171.3±22.8 μm, the “percentage of cell aggregates with size (diameter) 40 μm or more and 300 μm or less” value ([2]; Day 1 of culture, 10 μM CCG-1423, to total cell aggregate count) was 100% and the “Number of cell aggregates by size” value [2, 8] was 1. For the same molecule, the “Percentage of cell aggregates by size” value [2, 8] was 0.5%, the “Number of cell aggregates by size” value [2, 9] was 2 and the “Percentage of cell aggregates by size” value [2, 9] was 1.0%. For the same molecule, the “Number of cell aggregates by size” value [2, 10] was 0, the “Percentage of cell aggregates by size” value [2, 10] was 0.0% and the “Number of cell aggregates by size” value [2, 11] was 2. The “Percentage of cell aggregates by size” value [2, 11] was 1.0%, the “Number of cell aggregates by size” value [2, 12] was 6 and the “Percentage of cell aggregates by size” value [2, 12] was 2.9%. For the same molecule, the “Number of cell aggregates by size” value [2, 13] was 39, the “Percentage of cell aggregates by size” value [2, 13] was 18.8% and the “Number of cell aggregates by size” value [2, 14] was 87. For the same molecule, the “Percentage of cell aggregates by size” value [2, 14] was 41.8%, the “Number of cell aggregates by size” value [2, 15] was 60 and the “Percentage of cell aggregates by size” value [2, 15] was 28.8%. The “Number of cell aggregates by size” value [2, 16] was 9, the “Percentage of cell aggregates by size” value [2, 16] was 4.3% and the “Number of cell aggregates by size” value [2, 17] was 2. For the same molecule, the “Percentage of cell aggregates by size” value [2, 17] was 1.0%, the “Number of cell aggregates by size” value [2, 18] was 0 and the “Percentage of cell aggregates by size” value [2, 18] was 0.0%. The “Number of cell aggregates by size” value [2, 19] was 0, the “Percentage of cell aggregates by size” value [2, 19] was 0.0% and the “Number of cell aggregates by size” value [2, 20] was 0. For the same molecule, the “Percentage of cell aggregates by size” value [2, 20] was 0.0%, the “Number of cell aggregates by size” value [2, 21] was 0 and the “Percentage of cell aggregates by size” value [2, 21] was 0.0%. For the same molecule, the “proliferation of the number of seeded cells (8×10^5 cells/well)” value [3] was “approximately 8.5 fold”, the “number of dead cells compared to the control test (0 μM CCG-1423)” value [4] was “reduced” and the “percentage of cells positive for Nanog” value [5] was no less than 99%. The “percentage of cells positive for OCT4” value [5] was no less than 97%, the “percentage of cells positive for SOX2” value [5] was no less than 99% and the “cell aggregation compared to the control test (0 μM CCG-1423)” value [6] was “aggregation was promoted”.
